Where two headings read alike, the source gives them in different places.
Legend:
[1] = target: T1, human cloned 5-HT2A receptor, expressed in L929 cells (Homo sapiens, UniProt P28223); assay: In vitro radioligand binding affinity for 5-HT2A receptor ([125I]R91150)
T1 construct: expressed in transfected cells; host or cells: L929 cells
Protocol: The interaction of the compounds of Formula (I) with 5-HT2A and 5-HT2C receptors was assessed in in vitro radioligand binding experiments. In general, a low concentration of a radioligand with a high binding affinity for the receptor is incubated with a sample of a tissue preparation enriched in a particular receptor (1 to 5 mg tissue) in a buffered medium (0.2 to 5 ml). During the incubation, the radioligands bind to the receptor. When equilibrium of binding is reached, the receptor bound radioactivity is separated from the non-bound radioactivity, and the receptor bound activity is counted. The interaction of the test compounds with the receptors is assessed in competition binding experiments. Various concentrations of the test compound are added to the incubation mixture containing the tissue preparation and the radioligand. Binding of the radioligand will be inhibited by the test compound in proportion to its binding affinity and its concentration. The affinities of the compounds for the 5-HT2 receptors were measured by means of radioligand binding studies conducted with: (a) human cloned 5-HT2A receptor, expressed in L929 cells using [^125I]R91150 as radioligand and (b) human cloned 5-HT2C receptor, expressed in CHO cells using [^3H]mesulergine as radioligand.

[2] = target: T2, human cloned 5-HT2C receptor, expressed in CHO cells (Homo sapiens, UniProt P28335); assay: In vitro radioligand binding affinity for 5-HT2C receptor ([3H]mesulergine); details: human cloned 5-HT2C receptor in CHO cells, [3H]mesulergine; read-out: h-5HT2C (converted)
T2 construct: expressed in transfected cells; host or cells: CHO cells
T2 sequence (P28335 33-458): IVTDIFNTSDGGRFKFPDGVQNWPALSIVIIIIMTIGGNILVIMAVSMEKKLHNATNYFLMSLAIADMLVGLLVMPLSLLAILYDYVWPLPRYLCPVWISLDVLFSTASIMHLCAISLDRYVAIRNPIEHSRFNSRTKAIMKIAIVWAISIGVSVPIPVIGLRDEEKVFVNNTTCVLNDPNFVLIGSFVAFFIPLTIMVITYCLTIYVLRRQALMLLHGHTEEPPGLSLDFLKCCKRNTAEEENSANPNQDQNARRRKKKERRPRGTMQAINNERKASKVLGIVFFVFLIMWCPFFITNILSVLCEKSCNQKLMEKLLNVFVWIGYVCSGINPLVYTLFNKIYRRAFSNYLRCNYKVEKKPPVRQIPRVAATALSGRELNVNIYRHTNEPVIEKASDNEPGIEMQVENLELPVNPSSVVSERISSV
Protocol: The interaction of the compounds of Formula (I) with 5-HT2A and 5-HT2C receptors was assessed in in vitro radioligand binding experiments. […] During the incubation, the radioligands bind to the receptor. When equilibrium of binding is reached, the receptor bound radioactivity is separated from the non-bound radioactivity, and the receptor bound activity is counted. The interaction of the test compounds with the receptors is assessed in competition binding experiments. Various concentrations of the test compound are added to the incubation mixture containing the tissue preparation and the radioligand. Binding of the radioligand will be inhibited by the test compound in proportion to its binding affinity and its concentration.

[3] = target: T3, NET (Rattus norvegicus, UniProt Q9WTR4); assay: In vitro determination of NET reuptake inhibition ([3H]Nixosetine binding, rat brain cortex membranes)
T3 construct: Cortex from rat brain was collected and homogenised; from tissue; host or cells: rat brain cortex membranes
Protocol: Cortex from rat brain was collected and homogenised using an Ultra-Turrax T25 and a Dual homogeniser in ice-cold homogenising buffer containing Tris, NaCl and KCl (50 mM, 120 mM and 5 mM, respectively, pH 7.4) prior to dilution to an appropriate protein concentration optimised for specific and non-specific binding. […] Membrane-bound activity was detected by filtration through a Packard Filtermate harvester onto GF/B Unifilterplates, washed with ice-cold Tris-HCl buffer, containing NaCl and KCl (50 mM, 120 mM and 4 mM; pH 7.4; 6×0.5 ml). Filters were allowed to dry for 24 h before adding scintillation fluid. Scintillation fluid was allowed to saturate filters for 24 h before counting in a Topcount scintillation counter. Percentage specific bound and competition binding curves were calculated using S-Plus software (Insightful).

[4] = human cloned 5-HT2A receptor in L929 cells, [125I]R91150, read-out: h-5HT2A (converted)

T3 sequence (Q9WTR4 1-597): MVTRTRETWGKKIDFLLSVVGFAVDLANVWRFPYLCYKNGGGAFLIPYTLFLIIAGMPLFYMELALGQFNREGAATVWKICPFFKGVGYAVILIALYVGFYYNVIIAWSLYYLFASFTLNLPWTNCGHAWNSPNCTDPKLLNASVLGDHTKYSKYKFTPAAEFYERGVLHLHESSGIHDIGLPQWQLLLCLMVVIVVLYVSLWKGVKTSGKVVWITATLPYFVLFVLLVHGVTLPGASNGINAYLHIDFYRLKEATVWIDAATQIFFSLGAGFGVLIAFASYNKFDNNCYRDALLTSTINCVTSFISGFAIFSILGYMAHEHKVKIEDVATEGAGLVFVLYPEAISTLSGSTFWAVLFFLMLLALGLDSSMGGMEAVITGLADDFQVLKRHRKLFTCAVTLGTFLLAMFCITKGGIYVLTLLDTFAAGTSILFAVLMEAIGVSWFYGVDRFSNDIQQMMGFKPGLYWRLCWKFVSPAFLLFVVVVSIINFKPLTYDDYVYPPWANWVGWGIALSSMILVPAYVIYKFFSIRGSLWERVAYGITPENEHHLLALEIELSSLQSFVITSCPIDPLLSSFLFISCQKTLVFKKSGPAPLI
T1 sequence (P28223 whole entry): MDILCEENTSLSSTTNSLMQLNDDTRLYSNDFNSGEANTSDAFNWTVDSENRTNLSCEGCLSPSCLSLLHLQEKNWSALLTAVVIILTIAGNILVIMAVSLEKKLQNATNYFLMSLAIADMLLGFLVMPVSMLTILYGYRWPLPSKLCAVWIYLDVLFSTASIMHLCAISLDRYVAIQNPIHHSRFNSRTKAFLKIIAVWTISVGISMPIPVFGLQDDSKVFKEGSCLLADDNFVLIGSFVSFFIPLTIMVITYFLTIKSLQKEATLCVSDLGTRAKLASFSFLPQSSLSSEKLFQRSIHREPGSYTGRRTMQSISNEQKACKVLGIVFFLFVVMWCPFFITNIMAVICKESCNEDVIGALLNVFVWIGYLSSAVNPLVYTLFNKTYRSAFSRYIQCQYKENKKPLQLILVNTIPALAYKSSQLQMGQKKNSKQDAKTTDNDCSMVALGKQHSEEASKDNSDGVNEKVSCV

`CN(C)C[C@@H]1C[C@@H]2c3ccccc3Cc3ccc(F)cc3[C@H]2[S@+]1[O-]` [compound 25, [(2S,3aR,12bS)-11-fluoro-1-oxido-3,3a,8,12b-tetrahydro-2H-dibenzo[3,4:6,7]cyclohepta[1,2-b]thien-2-yl]-N,N-dimethylmethanamine] was tested, and the IC50 [1, 4] was > 10000 nM, the IC50 [2] was 2240 nM and the IC50 [3] was 2880 nM.

`CN(C)C[C@@H]1C[C@@H]2c3ccccc3Cc3ccc(F)cc3[C@H]2S1(=O)=O` [compound 22, [(2S,3aR,12bS)-11-fluoro-1,1-dioxido-3,3a,8, 12b-tetrahydro-2H-dibenzo[3,4:6,7]-cyclohepta[1,2-b]thien-2-yl]-N,N-dimethylmethanamine] was tested, and the IC50 [1, 4] was 8510 nM, the IC50 [2] was 1350 nM and the IC50 [3] was 4790 nM.

Molecule `CN(C)CC1CO[C@H]2c3cc(F)ccc3Cc3ccccc3[C@@H]12` (mixture of isomers) [compound 48, [(3aR,12bR)-11-fluoro-3,3a,8,12b-tetrahydro-2H-dibenzo[3,4:6,7]cyclohepta[1,2-b]-furan-3-yl]-N,N-dimethylmethanamine] has an IC50 [1, 4] of 6170 nM, an IC50 [2] of 3020 nM and an IC50 [3] of 224 nM.

`CN(C)CC1CO[C@@H]2c3cc(F)ccc3Cc3ccccc3[C@@H]12` (mixture of isomers) [compound 47, [(3aR,12bS)-11-fluoro-3,3a,8,12b-tetrahydro-2H-dibenzo[3,4:6,7]cyclohepta[1,2-b]-furan-3-yl]-N,N-dimethylmethanamine] gave an IC50 [1, 4] of 3800 nM, an IC50 [2] of 1580 nM and an IC50 [3] of 11 nM.

`Fc1ccc2c(c1)[C@H]1N[C@@H](CN3CCOCC3)C[C@@H]1c1ccccc1C2` [compound 42, (2R,3aR,12bS)-11-fluoro-2-(4-morpholinylmethyl)-1,2,3,3a,8,12b-hexahydrodibenzo-[3,4:6,7]cyclohepta[1,2-b]pyrrole] showed an IC50 [1, 4] of 631 nM, an IC50 [2] of 550 nM and an IC50 [3] of 5500 nM.

For `OCCN1CCN(C[C@H]2C[C@@H]3c4ccccc4Cc4ccc(F)cc4[C@H]3N2)CC1` [43a, 2-(4-{[(2R,3aR,12bS)-11-fluoro-1,2,3,3a,8,12b-hexahydrodibenzo[3,4:6,7]cyclohepta-[1,2-b]pyrrol-2-yl]methyl}-1-piperazinyl)ethanol], the IC50 [1, 4] was 427 nM, the IC50 [2] was 407 nM and the IC50 [3] was > 10000 nM.

In the case of `CN1CC(=O)N2[C@H](C[C@@H]3c4ccccc4Cc4ccc(F)cc4[C@H]32)C1` [compound 13, (5aS,14bR,15aR)-7-fluoro-2-methyl-1,2,3,5a,10,14b,15,15a-octahydro-4H-dibenzo-[3′,4′:6′,7′]cyclohepta[1′,2′:4,5]pyrrolo[1,2-a]pyrazin-4-one], the IC50 [1] is reported as 87.1 nM and the “NET Reuptake Inhibition” value [3] is reported as <5.

`CN[C@@H]1CO[C@@H]2c3cc(F)ccc3Cc3ccccc3[C@H]2C1` (relative stereo) [compound 35, (3S*,4aR*,13bS*)-12-fluoro-N-methyl-2,3,4,4a,9,13b-hexahydrodibenzo[3,4:6,7]-cyclohepta[1,2-b]pyran-3-amine] was tested, and the IC50 [2] was 2630 nM and the IC50 [3] was > 1000 nM.

`CN(C)C[C@H]1C[C@@H]2c3ccccc3Cc3ccc(F)cc3[C@H]2[S@+]1[O-]` [compound 28, [(2R,3aR,12bS)-11-fluoro-1-oxido-3,3a,8,12b-tetrahydro-2H-dibenzo[3,4:6,7]cyclohepta[1,2-b]thien-2-yl]-N,N-dimethylmethanamine] showed an IC50 [1, 4] of 7760 nM, an IC50 [2] of 1780 nM and an IC50 [3] of 145 nM.
